# Measured values taken from PMC5218480 (PLoS ONE, 2017).
# System: MV-4-11 cells
# Experiment: Gene expression microarray analysis (Affymetrix PrimeView) and GSEA
# Format: cell-based, human
# Parameters: RFU PODN (11730768_x_at) / Fold change /veh PODN (11730768_x_at) / RFU LINC00158 (11744669_a_at) / Fold change /veh LINC00158 (11744669_a_at) / RFU DUSP10 (11751237_a_at) / Fold change /veh DUSP10 (11751237_a_at) / RFU ID3 (11757404_x_at) / Fold change /veh ID3 (11757404_x_at) / RFU PLEKHG5 (11737974_s_at) / Fold change /veh PLEKHG5 (11737974_s_at) / RFU LRRC4B (11730491_at) / Fold change /veh LRRC4B (11730491_at) / RFU GIMAP4 (11747438_a_at) / Fold change /veh GIMAP4 (11747438_a_at) / RFU KRT8 (11758183_x_at) / Fold change /veh KRT8 (11758183_x_at) / RFU CNN1 (11734310_a_at) / Fold change /veh CNN1 (11734310_a_at) / RFU VPS37D (11726825_at) / Fold change /veh VPS37D (11726825_at) / RFU C10orf10 (11716522_x_at) / Fold change /veh C10orf10 (11716522_x_at) / RFU KIR2DL2 /// KIR2DL4 /// KIR2DL5A /// KIR2DL5B /// KIR2DS1 /// KIR2DS2 /// KIR2DS3 /// KIR2DS4 /// KIR3DL3 /// KIR3DL3 /// KIR3DS1 (11738374_at) / Fold change /veh KIR2DL2 /// KIR2DL4 /// KIR2DL5A /// KIR2DL5B /// KIR2DS1 /// KIR2DS2 /// KIR2DS3 /// KIR2DS4 /// KIR3DL3 /// KIR3DL3 /// KIR3DS1 (11738374_at) / RFU C1QL1 (11718748_at) / Fold change /veh C1QL1 (11718748_at) / RFU TMPRSS4 (11747572_a_at) / Fold change /veh TMPRSS4 (11747572_a_at) / RFU HAMP (11756126_x_at) / Fold change /veh HAMP (11756126_x_at) / RFU RNFT2 (11725882_a_at) / Fold change /veh RNFT2 (11725882_a_at) / RFU NR4A2 (11747474_a_at) / Fold change /veh NR4A2 (11747474_a_at) / RFU ABCC12 (11746883_a_at) / Fold change /veh ABCC12 (11746883_a_at) / RFU TMEM136 (11760407_x_at) / Fold change /veh TMEM136 (11760407_x_at) / RFU CLDN22 /// WWC2 (11732394_at) / Fold change /veh CLDN22 /// WWC2 (11732394_at) / RFU HLA-DPB1 (11760878_x_at) / Fold change /veh HLA-DPB1 (11760878_x_at) / RFU SPINT1 (11716480_a_at) / Fold change /veh SPINT1 (11716480_a_at) / RFU GAP43 (11754022_s_at) / Fold change /veh GAP43 (11754022_s_at) / RFU A4GNT (11735810_at) / Fold change /veh A4GNT (11735810_at) / RFU PRB3 (11715151_x_at) / Fold change /veh PRB3 (11715151_x_at) / RFU TUBB4B (11761932_at) / Fold change /veh TUBB4B (11761932_at) / RFU CAPN14 (11732068_a_at) / Fold change /veh CAPN14 (11732068_a_at) / RFU TMCC2 (11721928_a_at) / Fold change /veh TMCC2 (11721928_a_at) / RFU IRGQ (11745062_a_at) / Fold change /veh IRGQ (11745062_a_at) / RFU FAM174B (11720279_a_at) / Fold change /veh FAM174B (11720279_a_at) / RFU TMPRSS4 (11748680_a_at) / Fold change /veh TMPRSS4 (11748680_a_at) / RFU FAM212B (11763350_a_at) / Fold change /veh FAM212B (11763350_a_at) / RFU PLEKHG5 (11743358_a_at) / Fold change /veh PLEKHG5 (11743358_a_at) / RFU ZSCAN30 (11745921_a_at) / Fold change /veh ZSCAN30 (11745921_a_at) / RFU CMKLR1 (11741424_a_at) / Fold change /veh CMKLR1 (11741424_a_at) / RFU LOC101060620 /// MAPK8IP1 (11723275_at) / Fold change /veh LOC101060620 /// MAPK8IP1 (11723275_at) / RFU SPTSSB (11747773_x_at) / Fold change /veh SPTSSB (11747773_x_at) / RFU PRSS12 (11739890_at) / Fold change /veh PRSS12 (11739890_at) / RFU BIN1 (11741810_x_at) / Fold change /veh BIN1 (11741810_x_at) / RFU WNT11 (11732464_a_at) / Fold change /veh WNT11 (11732464_a_at) / RFU C10orf10 (11716521_a_at) / Fold change /veh C10orf10 (11716521_a_at) / RFU C5orf56 (11738089_at) / Fold change /veh C5orf56 (11738089_at) / RFU CYB561 (11721691_x_at) / Fold change /veh CYB561 (11721691_x_at) / RFU ANKRD19P (11752326_a_at) / Fold change /veh ANKRD19P (11752326_a_at) / RFU OR2T12 /// OR2T33 /// OR2T8 (11738714_s_at) / Fold change /veh OR2T12 /// OR2T33 /// OR2T8 (11738714_s_at) / RFU VCAN (11748164_a_at) / Fold change /veh VCAN (11748164_a_at) / RFU JSRP1 (11732532_at) / Fold change /veh JSRP1 (11732532_at) / RFU KRTAP10-11 (11738290_x_at) / Fold change /veh KRTAP10-11 (11738290_x_at) / RFU MYO3A (11730013_a_at) / Fold change /veh MYO3A (11730013_a_at) / RFU EBF3 (11725865_a_at) / Fold change /veh EBF3 (11725865_a_at) / RFU CAMK2N1 (11719241_x_at) / Fold change /veh CAMK2N1 (11719241_x_at) / RFU C5orf56 (11738088_a_at) / Fold change /veh C5orf56 (11738088_a_at) / RFU OLFML3 (11715873_a_at) / Fold change /veh OLFML3 (11715873_a_at) / RFU LOC100653217 /// NTM (11731650_a_at) / Fold change /veh LOC100653217 /// NTM (11731650_a_at) / RFU MAPK11 (11762145_a_at) / Fold change /veh MAPK11 (11762145_a_at) / RFU FIZ1 (11724087_x_at) / Fold change /veh FIZ1 (11724087_x_at) / RFU OASL (11726364_x_at) / Fold change /veh OASL (11726364_x_at) / RFU SOX15 (11748057_x_at) / Fold change /veh SOX15 (11748057_x_at) / RFU CD79A (11719716_a_at) / Fold change /veh CD79A (11719716_a_at) / RFU HIST1H1D (11736915_at) / Fold change /veh HIST1H1D (11736915_at) / RFU CASKIN2 (11723855_a_at) / Fold change /veh CASKIN2 (11723855_a_at) / RFU LOC730098 (11760151_x_at) / Fold change /veh LOC730098 (11760151_x_at) / RFU OR4N2 (11742367_at) / Fold change /veh OR4N2 (11742367_at) / RFU PRRT2 (11749266_a_at) / Fold change /veh PRRT2 (11749266_a_at) / RFU SNX32 (11753110_a_at) / Fold change /veh SNX32 (11753110_a_at) / RFU CDHR5 (11726645_a_at) / Fold change /veh CDHR5 (11726645_a_at) / RFU RCAN1 (11760418_a_at) / Fold change /veh RCAN1 (11760418_a_at) / RFU FAM167A (11723789_a_at) / Fold change /veh FAM167A (11723789_a_at) / RFU FAM26E (11764081_at) / Fold change /veh FAM26E (11764081_at) / RFU ISYNA1 (11749810_s_at) / Fold change /veh ISYNA1 (11749810_s_at) / RFU ACY1 (11761880_at) / Fold change /veh ACY1 (11761880_at) / RFU 11764098_at / Fold change /veh 11764098_at / RFU SAMD14 (11745864_x_at) / Fold change /veh SAMD14 (11745864_x_at) / RFU NPB (11741838_a_at) / Fold change /veh NPB (11741838_a_at) / RFU TMPRSS6 (11731388_a_at) / Fold change /veh TMPRSS6 (11731388_a_at) / RFU KRTAP10-2 (11738614_at) / Fold change /veh KRTAP10-2 (11738614_at) / RFU ARHGAP8 /// PRR5-ARHGAP8 (11727945_x_at) / Fold change /veh ARHGAP8 /// PRR5-ARHGAP8 (11727945_x_at) / RFU KRTAP5-7 /// NADSYN1 (11734609_at) / Fold change /veh KRTAP5-7 /// NADSYN1 (11734609_at) / RFU RASL12 (11751679_a_at) / Fold change /veh RASL12 (11751679_a_at) / RFU CDKN2B (11736163_a_at) / Fold change /veh CDKN2B (11736163_a_at) / RFU PRF1 (11729649_at) / Fold change /veh PRF1 (11729649_at) / RFU, ZNF638 /// ZNF638-IT1 / Fold change vs veh, ZNF638 /// ZNF638-IT1 / RFU, PANK3 / Fold change vs veh, PANK3 / RFU, SH3YL1 / Fold change vs veh, SH3YL1 / RFU, ZEB2 / Fold change vs veh, ZEB2 / RFU, NRIP1 / Fold change vs veh, NRIP1 / RFU, PTTG1IP / Fold change vs veh, PTTG1IP / RFU, CAPN2 / Fold change vs veh, CAPN2 / RFU, MED14 / Fold change vs veh, MED14 / RFU, SNORA58 / Fold change vs veh, SNORA58 / RFU, C1orf63 / Fold change vs veh, C1orf63 / RFU, LRRFIP1 / Fold change vs veh, LRRFIP1 / RFU, NDUFAF7 / Fold change vs veh, NDUFAF7 / RFU, SLC12A2 / Fold change vs veh, SLC12A2 / RFU, IBTK / Fold change vs veh, IBTK / RFU, ESF1 / Fold change vs veh, ESF1 / Fold change vs veh, TMEM50B / RFU, TAOK1 / Fold change vs veh, TAOK1 / RFU, ACBD3 / Fold change vs veh, ACBD3 / RFU, TMA16 / Fold change vs veh, TMA16 / RFU, RWDD3 / Fold change vs veh, RWDD3 / RFU, BCAT1 / Fold change vs veh, BCAT1 / RFU, EDEM3 / Fold change vs veh, EDEM3 / RFU, TMEM33 / Fold change vs veh, TMEM33 / RFU, WDR75 / Fold change vs veh, WDR75 / RFU, AHCTF1 / Fold change vs veh, AHCTF1 / RFU, TFRC / Fold change vs veh, TFRC / RFU, ZDHHC17 / Fold change vs veh, ZDHHC17 / RFU, NOM1 / Fold change vs veh, NOM1 / RFU, ARL8B / Fold change vs veh, ARL8B / RFU, ZBTB11 / Fold change vs veh, ZBTB11 / RFU, TAMM41 / Fold change vs veh, TAMM41 / RFU, KIAA1704 /// LOC100996395 / Fold change vs veh, KIAA1704 /// LOC100996395 / RFU, ING1 / Fold change vs veh, ING1 / RFU, TRMT61B / Fold change vs veh, TRMT61B / RFU, FUBP3 / Fold change vs veh, FUBP3 / RFU, TP53 / Fold change vs veh, TP53 / RFU, TNKS2 / Fold change vs veh, TNKS2 / RFU, ZFP14 / Fold change vs veh, ZFP14 / RFU, ACTR2 / Fold change vs veh, ACTR2 / RFU, PPP3R1 / Fold change vs veh, PPP3R1 / RFU, PIK3R1 / Fold change vs veh, PIK3R1 / RFU, HNRNPA1 / Fold change vs veh, HNRNPA1 / RFU, RNF170 / Fold change vs veh, RNF170 / RFU, ZNF28 / Fold change vs veh, ZNF28 / RFU, RNGTT / Fold change vs veh, RNGTT / RFU, OGT / Fold change vs veh, OGT / RFU, BRD1 / Fold change vs veh, BRD1 / RFU, MARS / Fold change vs veh, MARS / RFU, ZNF655 / Fold change vs veh, ZNF655 / RFU, FAHD1 / Fold change vs veh, FAHD1 / RFU, BDP1 / Fold change vs veh, BDP1 / RFU, LRRCC1 / Fold change vs veh, LRRCC1 / RFU, ARID1A / Fold change vs veh, ARID1A / RFU, ZNF146 / Fold change vs veh, ZNF146 / RFU, ZNF330 / Fold change vs veh, ZNF330 / RFU, GPN3 / Fold change vs veh, GPN3 / RFU, C9orf123 / Fold change vs veh, C9orf123 / RFU, N4BP2L2 / Fold change vs veh, N4BP2L2 / RFU, ARFIP1 / Fold change vs veh, ARFIP1 / RFU, FAM179B / Fold change vs veh, FAM179B / RFU, BCL10 / Fold change vs veh, BCL10 / RFU, UHRF1BP1L / Fold change vs veh, UHRF1BP1L / RFU, BET1 / Fold change vs veh, BET1 / RFU, CNOT2 / Fold change vs veh, CNOT2 / RFU, ZNF268 / Fold change vs veh, ZNF268 / Fold change vs veh, ZNF507 / RFU, DGCR2 / Fold change vs veh, DGCR2 / RFU, WDSUB1 / Fold change vs veh, WDSUB1 / Fold change vs veh, HSP90B1 /// MIR3652 / RFU, ADSS / Fold change vs veh, ADSS / RFU, GK / Fold change vs veh, GK / RFU, ZNF148 / Fold change vs veh, ZNF148 / RFU, TAF9 / Fold change vs veh, TAF9 / RFU, SLC1A5 / Fold change vs veh, SLC1A5 / RFU, SLMO2 / Fold change vs veh, SLMO2 / RFU, ABCC4 / Fold change vs veh, ABCC4 / RFU, LOC101060439 /// RAP1B / Fold change vs veh, LOC101060439 /// RAP1B / RFU, RFX7 / Fold change vs veh, RFX7 / RFU, GTPBP10 / Fold change vs veh, GTPBP10 / RFU, CNEP1R1 / Fold change vs veh, CNEP1R1 / RFU, BIVM-ERCC5 /// ERCC5 / Fold change vs veh, BIVM-ERCC5 /// ERCC5 / RFU, ILF3 / Fold change vs veh, ILF3 / RFU 11762660_at / Fold change /veh 11762660_at / RFU VCAN (11757783_s_at) / Fold change /veh VCAN (11757783_s_at) / RFU DDX43 (11728927_at) / Fold change /veh DDX43 (11728927_at) / RFU KRT8 (11758188_x_at) / Fold change /veh KRT8 (11758188_x_at) / RFU NKD1 (11759106_at) / Fold change /veh NKD1 (11759106_at) / RFU SRD5A1 (11742802_a_at) / Fold change /veh SRD5A1 (11742802_a_at) / RFU TPSAB1 /// TPSB2 (11721975_s_at) / Fold change /veh TPSAB1 /// TPSB2 (11721975_s_at) / RFU GSTM3 (11746129_a_at) / Fold change /veh GSTM3 (11746129_a_at) / RFU IL23R (11737362_x_at) / Fold change /veh IL23R (11737362_x_at) / RFU TMEM51 (11727254_a_at) / Fold change /veh TMEM51 (11727254_a_at) / RFU PIWIL2 (11732686_x_at) / Fold change /veh PIWIL2 (11732686_x_at) / RFU ORM1 (11744905_x_at) / Fold change /veh ORM1 (11744905_x_at) / RFU CCDC152 (11743942_at) / Fold change /veh CCDC152 (11743942_at) / RFU ECM1 (11717891_a_at) / Fold change /veh ECM1 (11717891_a_at) / RFU IL23R (11748794_a_at) / Fold change /veh IL23R (11748794_a_at) / RFU TNFAIP8L3 (11732012_x_at) / Fold change /veh TNFAIP8L3 (11732012_x_at) / RFU MBOAT4 (11741988_at) / Fold change /veh MBOAT4 (11741988_at) / RFU 11764193_at / Fold change /veh 11764193_at / RFU TMEM53 (11763286_at) / Fold change /veh TMEM53 (11763286_at) / RFU MAGEB2 (11727129_at) / Fold change /veh MAGEB2 (11727129_at) / RFU TMEM200A (11744735_a_at) / Fold change /veh TMEM200A (11744735_a_at) / RFU CCDC152 (11751479_a_at) / Fold change /veh CCDC152 (11751479_a_at) / RFU FAM211A (11726209_a_at) / Fold change /veh FAM211A (11726209_a_at) / RFU RGS16 (11746705_a_at) / Fold change /veh RGS16 (11746705_a_at) / RFU VCAN (11755009_s_at) / Fold change /veh VCAN (11755009_s_at) / RFU RHOB (11743442_s_at) / Fold change /veh RHOB (11743442_s_at) / RFU RGS16 (11720943_a_at) / Fold change /veh RGS16 (11720943_a_at) / RFU RGS16 (11720944_at) / Fold change /veh RGS16 (11720944_at) / RFU, VPS4B / Fold change vs veh, VPS4B / RFU, CREB1 / Fold change vs veh, CREB1 / RFU, DNAJC13 / Fold change vs veh, DNAJC13 / RFU, GNAQ / Fold change vs veh, GNAQ / RFU, CDK5R1 / Fold change vs veh, CDK5R1 / RFU, ZRANB3 / Fold change vs veh, ZRANB3 / RFU, CUL4A / Fold change vs veh, CUL4A / RFU, CCNY / Fold change vs veh, CCNY / RFU, UFL1 / Fold change vs veh, UFL1 / RFU, COG3 / Fold change vs veh, COG3 / RFU, DIAPH2 / Fold change vs veh, DIAPH2 / RFU, SKA2 / Fold change vs veh, SKA2 / RFU, AFF3 / Fold change vs veh, AFF3 / RFU, LMF1 / Fold change vs veh, LMF1 / RFU, IPO11 / Fold change vs veh, IPO11 / RFU, DFFB / Fold change vs veh, DFFB / RFU, FOXP1 / Fold change vs veh, FOXP1 / RFU, CARD8 / Fold change vs veh, CARD8 / RFU, STRN3 / Fold change vs veh, STRN3 / RFU, ADK / Fold change vs veh, ADK / RFU, RASSF2 / Fold change vs veh, RASSF2 / RFU, WIPF1 / Fold change vs veh, WIPF1 / RFU, LARP1B / Fold change vs veh, LARP1B / RFU, RASA1 / Fold change vs veh, RASA1 / RFU, RB1 / Fold change vs veh, RB1 / RFU, PPFIA1 / Fold change vs veh, PPFIA1 / RFU, MAT2A / Fold change vs veh, MAT2A / RFU, CCT5 / Fold change vs veh, CCT5 / RFU, WDR92 / Fold change vs veh, WDR92 / RFU, CUX1 / Fold change vs veh, CUX1 / RFU, TTC7A / Fold change vs veh, TTC7A / RFU, TMEM135 / Fold change vs veh, TMEM135 / RFU, DEPTOR / Fold change vs veh, DEPTOR / RFU, CPM / Fold change vs veh, CPM / RFU, DNAJB6 / Fold change vs veh, DNAJB6 / RFU, CACNA2D3 / Fold change vs veh, CACNA2D3 / RFU, DTX4 / Fold change vs veh, DTX4 / RFU, TFCP2 / Fold change vs veh, TFCP2 / RFU, GMCL1 /// GMCL1P1 / Fold change vs veh, GMCL1 /// GMCL1P1 / RFU, AEBP2 / Fold change vs veh, AEBP2 / RFU, SNHG1 /// SNORD22 /// SNORD25 /// SNORD26 /// SNORD27 /// SNORD28 /// SNORD29 /// SNORD31 / Fold change vs veh, SNHG1 /// SNORD22 /// SNORD25 /// SNORD26 /// SNORD27 /// SNORD28 /// SNORD29 /// SNORD31 / Fold change (Aza/veh), C12orf56 (ProbeSet 11735607_a_at) / Fold change (ACY-1035/veh), C12orf56 (ProbeSet 11735607_a_at) / Fold change (Aza/veh), FGFR1OP (ProbeSet 11751329_s_at) / Fold change (ACY-1035/veh), FGFR1OP (ProbeSet 11751329_s_at) / Fold change (Aza/veh), VPS36 (ProbeSet 11739960_a_at) / Fold change (ACY-1035/veh), VPS36 (ProbeSet 11739960_a_at) / RFU SYPL1 (11715823_x_at) / Fold change /veh SYPL1 (11715823_x_at) / RFU IGFBP7 (11715501_s_at) / Fold change /veh IGFBP7 (11715501_s_at) / RFU REEP3 (11722064_at) / Fold change /veh REEP3 (11722064_at) / RFU IGLL1 (11728026_x_at) / Fold change /veh IGLL1 (11728026_x_at): dose or concentration left out as unconfirmed
# Conditions: ProbeSet 11743580_s_at; LIST B
structure (smiles),measurement,value
Nc1ccc(-c2cccs2)cc1NC(=O)c1ccc2c(c1)cc(C1CC1)n2CCN1CCOCC1 [ACY-1035],"RFU, ACTR2",854.57 RFU
